The source of these data is PubChem BioAssay AID192 (DTP/NCI, 2004).

“And” between values parts separate entries of the source, which are not always exact repeats. Equal values may be shown once. Inconclusive results and toxic doses are left out.

The assay relates to BDF1 mice, B16 melanoma ip, median survival T/C. In words: NCI In Vivo Anticancer Drug Screen. Data for tumor model B16 Melanoma (intraperitoneal) in B6D2F1 (BDF1) mice. Particulars: endpoint: median survival time, higher = longer survival. In outline:
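Values are ratios of treated (T) to vehicle-control (C) measurements of survival or tumor size in tumor-bearing mice.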

Where [1] appears, read: dose: 100.0 mg/kg/injection, schedule: Q01DX009 (ip), vehicle: saline.
[2] abbreviates: dose: 200.0 mg/kg/injection, schedule: Q01DX009 (ip), vehicle: saline.
Where [3] appears, read: dose: 25.0 mg/kg/injection, schedule: Q01DX009 (ip), vehicle: Klucel (hydroxypropylcellulose) (HPC).
The mark [4] stands for this setting: dose: 50.0 mg/kg/injection, schedule: Q01DX009 (ip), vehicle: Klucel (hydroxypropylcellulose) (HPC).
The mark [5] stands for this setting: dose: 1.56 mg/kg/injection, schedule: Q01DX009 (ip), vehicle: saline.
Setting [6] is: dose: 3.12 mg/kg/injection, schedule: Q01DX009 (ip), vehicle: saline.
[7] abbreviates: dose: 6.25 mg/kg/injection, schedule: Q01DX009 (ip), vehicle: saline.
The mark [8] stands for this setting: dose: 100.0 mg/kg/injection, schedule: Q01DX009 (ip), vehicle: Klucel (hydroxypropylcellulose) (HPC).
Setting [9] is: dose: 200.0 mg/kg/injection, schedule: Q01DX009 (ip), vehicle: Klucel (hydroxypropylcellulose) (HPC).
[10] abbreviates: dose: 400.0 mg/kg/injection, schedule: Q01DX009 (ip), vehicle: Klucel (hydroxypropylcellulose) (HPC).
The mark [11] stands for this setting: dose: 12.5 mg/kg/injection, schedule: Q01DX009 (ip), vehicle: saline with Tween-80.
The mark [12] stands for this setting: dose: 25.0 mg/kg/injection, schedule: Q01DX009 (ip), vehicle: saline with Tween-80.
Setting [13] is: dose: 12.5 mg/kg/injection, schedule: Q01DX009 (ip), vehicle: saline.
The mark [14] stands for this setting: dose: 25.0 mg/kg/injection, schedule: Q01DX009 (ip), vehicle: saline.
Setting [15] is: dose: 50.0 mg/kg/injection, schedule: Q04DX003 (ip), vehicle: saline with Tween-80.
The mark [16] stands for this setting: dose: 100.0 mg/kg/injection, schedule: Q01DX009 (ip), vehicle: saline with Tween-80.
The mark [17] stands for this setting: dose: 200.0 mg/kg/injection, schedule: Q01DX009 (ip), vehicle: saline with Tween-80.
[18] abbreviates: dose: 400.0 mg/kg/injection, schedule: Q01DX009 (ip), vehicle: saline with Tween-80.
The mark [19] stands for this setting: dose: 50.0 mg/kg/injection, schedule: Q01DX009 (ip), vehicle: saline.

As for `c1ccc(COB(OCc2ccccc2)OCc2ccccc2)cc1`, the T/C runs as follows: under setting [1], 108 % of control; under setting [2], 97 % of control; (dose: 400.0 mg/kg/injection, schedule: Q01DX009 (ip), vehicle: saline) 87 % of control.
Regarding `CCCC(OC(C)=O)C(Cl)(Cl)Cl` (centres undefined), the T/C was 90 % of control under setting [3] and 100 % of control under setting [4].
Regarding `O=C1CCCC2C1C1(O)CCC2(O)c2cccc(O)c21` (centres undefined), the T/C runs as follows: under setting [5], 90 % of control; under setting [6], 95 % of control; (dose: 3.12 mg/kg/injection, schedule: Q04DX003 (ip), vehicle: saline) 93 % of control; under setting [7], 93 % of control; (dose: 6.25 mg/kg/injection, schedule: Q04DX003 (ip), vehicle: saline) 91 % of control; (dose: 12.5 mg/kg/injection, schedule: Q01DX009 (ip), vehicle: Klucel (hydroxypropylcellulose) (HPC)) 95 % of control. Also, the T/C is 91 % of control (dose: 12.5 mg/kg/injection, schedule: Q04DX003 (ip), vehicle: saline); 105 % of control (dose: 18.0 mg/kg/injection, schedule: Q04DX003 (ip), vehicle: saline); 103 % of control (dose: 28.0 mg/kg/injection, schedule: Q04DX003 (ip), vehicle: saline).
In the case of `Nc1nc2[nH]c(=O)cnc2c(=O)[nH]1`, the T/C was 88 % of control under setting [4], 86 % of control under setting [8] and 99 % of control under setting [9].
`COc1ccc2c(c1)CCC1=C2CCC2(C)C(=O)OC(=O)C12` (centres undefined): the T/C was 103 % of control under setting [8], 96 % of control under setting [9] and 100 % of control under setting [10].
For the molecule `O=C(Nc1ccc([N+](=O)[O-])cc1)Nc1ccc([N+](=O)[O-])c(C(F)(F)F)c1`, the T/C reads like this: (dose: 6.25 mg/kg/injection, schedule: Q01DX009 (ip), vehicle: saline with Tween-80) 100 % of control; under setting [11], 100 % of control; under setting [12], 90 % of control.
As for `O=C1OC2CC1(O)CC(O)C2O` (centres undefined), the T/C by setting is: under setting [7], 111 % of control; under setting [13], 92 % of control; under setting [14], 101 % of control; under setting [15], 103 % of control; (dose: 100.0 mg/kg/injection, schedule: Q04DX003 (ip), vehicle: saline with Tween-80) 97 % of control; (dose: 200.0 mg/kg/injection, schedule: Q04DX003 (ip), vehicle: saline with Tween-80) 94 % of control.
Turning to `O=C(Nc1ccc(F)cc1)Nc1ccc(Cl)cc1`, the T/C is 89 % of control under setting [16] and 89 % of control under setting [17].
For `CC(=O)CC(=O)OCc1ccccc1`, the T/C runs as follows: under setting [16], 107 % of control; under setting [17], 105 % of control; under setting [18], 100 % of control.
In the case of `COC(=O)C1C2OC(C(Br)C2Br)C1C(=O)OC` (centres undefined), the T/C reads like this: (dose: 100.0 mg/kg/injection, schedule: Q04DX003 (ip), vehicle: Klucel (hydroxypropylcellulose) (HPC)) 103 % of control; (dose: 200.0 mg/kg/injection, schedule: Q04DX003 (ip), vehicle: Klucel (hydroxypropylcellulose) (HPC)) 105 % of control; (dose: 400.0 mg/kg/injection, schedule: Q04DX003 (ip), vehicle: Klucel (hydroxypropylcellulose) (HPC)) 101 % of control.
Regarding `CCCCCCCCCCCCO[P+](=O)OCCCCCCCCCCCC`, the T/C under setting [1] was 88 % of control.
Consider `Cc1ccc(S(=O)(=O)N=N/C=C2/C=CC=CN2O)cc1`, for which the T/C reads like this: under setting [3], 108 % of control; under setting [4], 114 % of control; under setting [8], 115 % of control.
As for `Cc1c(Cl)cccc1NS(=O)(=O)c1ccc(Cl)cc1`, the T/C reads like this: under setting [3], 106 % of control; under setting [4], 97 % of control; under setting [8], 99 % of control.
Consider `CC[n+]1c(-c2ccccc2)c2cc(N)ccc2c2ccc(N)cc21`, for which the T/C is, setting by setting: (dose: 0.75 mg/kg/injection, schedule: Q01DX009 (ip), vehicle: water) 98 % of control; (dose: 1.0 mg/kg/injection, schedule: Q01DX009 (ip), vehicle: saline) 95 % of control; (dose: 1.5 mg/kg/injection, schedule: Q01DX009 (ip), vehicle: water) 106 % of control; under setting [5], 105 % of control; (dose: 2.0 mg/kg/injection, schedule: Q01DX009 (ip), vehicle: saline) 95 % of control; (dose: 3.0 mg/kg/injection, schedule: Q01DX009 (ip), vehicle: water) 108 % of control. Also, the T/C runs as follows: under setting [6], 158 % of control; (dose: 4.0 mg/kg/injection, schedule: Q01DX009 (ip), vehicle: saline sonified) 120 % of control; (dose: 4.0 mg/kg/injection, schedule: Q01DX009 (ip), vehicle: saline) 108 % of control; (dose: 6.0 mg/kg/injection, schedule: Q01DX009 (ip), vehicle: water) 112 % of control; (dose: 8.0 mg/kg/injection, schedule: Q01DX009 (ip), vehicle: saline sonified) 115 % of control; (dose: 8.0 mg/kg/injection, schedule: Q01DX009 (ip), vehicle: saline) 108 % of control.
`Cc1cnc([Se])[nH]c1=O`: the T/C (dose: 6.25 mg/kg/injection, schedule: Q01DX009 (ip), vehicle: water) was 100 % of control; the T/C (dose: 12.5 mg/kg/injection, schedule: Q01DX009 (ip), vehicle: water) is 96 % of control; the T/C (dose: 25.0 mg/kg/injection, schedule: Q01DX009 (ip), vehicle: water) is 96 % of control; the T/C (dose: 50.0 mg/kg/injection, schedule: Q01DX009 (ip), vehicle: water) is 101 % of control.
In the case of `Nc1n[nH]c(N)n1`, the T/C is 99 % of control and 100 % of control under setting [19]; 100 % of control (2×) and 108 % of control under setting [8]; 90 % of control (dose: 100.0 mg/kg/injection, schedule: Q01DX009 (ip), vehicle: saline sonified); 95 % of control and 97 % of control and 120 % of control under setting [16]; 94 % of control and 102 % of control (2×) under setting [9]; 97 % of control and 100 % of control (dose: 200.0 mg/kg/injection, schedule: Q01DX009 (ip), vehicle: saline sonified). Further, the T/C is, setting by setting: under setting [17], 100 % of control and 107 % of control; under setting [10], 92 % of control and 108 % of control and 110 % of control; (dose: 400.0 mg/kg/injection, schedule: Q01DX009 (ip), vehicle: saline sonified) 95 % of control and 97 % of control; (dose: 800.0 mg/kg/injection, schedule: Q01DX009 (ip), vehicle: Klucel (hydroxypropylcellulose) (HPC)) 86 % of control and 107 % of control and 111 % of control; (dose: 800.0 mg/kg/injection, schedule: Q01DX009 (ip), vehicle: saline sonified) 92 % of control and 100 % of control; (dose: 1600.0 mg/kg/injection, schedule: Q01DX009 (ip), vehicle: saline with Tween-80) 93 % of control. Further, the T/C (dose: 3200.0 mg/kg/injection, schedule: Q01DX009 (ip), vehicle: saline with Tween-80) is 97 % of control.
With `O=C1c2ccccc2C(=O)C(Cl)C1Cl` (centres undefined), the T/C is 94 % of control (dose: 0.19 mg/kg/injection, schedule: Q01DX009 (ip), vehicle: saline with Tween-80); 94 % of control (dose: 0.39 mg/kg/injection, schedule: Q01DX009 (ip), vehicle: saline with Tween-80); 86 % of control (dose: 5.0 mg/kg/injection, schedule: Q01DX009 (ip), vehicle: saline).
For the molecule `O=C(O)c1c(Cl)cccc1Cl`, the T/C is 105 % of control under setting [11]; 95 % of control under setting [12]; 105 % of control (dose: 25.0 mg/kg/injection, schedule: Q04DX003 (ip), vehicle: saline with Tween-80); 97 % of control under setting [15].
For `CC1(C)OC(=O)N(CO)C1=O`, the T/C runs as follows: under setting [7], 95 % of control; under setting [13], 94 % of control and 109 % of control; under setting [14], 94 % of control and 115 % of control; under setting [19], 108 % of control and 115 % of control; under setting [1], 114 % of control and 115 % of control; under setting [2], 109 % of control and 117 % of control.
For `Clc1cccc(/C=C2\c3cc(Cl)ccc3-c3c(Cl)cc(Cl)cc32)c1`, the T/C is, setting by setting: under setting [17], 100 % of control; under setting [18], 97 % of control; (dose: 800.0 mg/kg/injection, schedule: Q01DX009 (ip), vehicle: saline with Tween-80) 93 % of control.
